# According to patent publication US8518946B2, “Salts of (R)-7-[3-amino-4-(2,4,5-trifluorophenyl)butanoyl]-3-trifluoromethyl-5,6,7,8-tetrahydroimidazo[1,5-a] pyrazine-1-carboxylic acid, preparation method and medical use thereof” (Jiangsu Hengrui Medicine Co., Ltd., priority 2009, dated 2013):
# Like-named read-outs stand apart in the source and are kept apart here.
# Key:
# [1] = Solubility experiment in four systems; assay type: physicochemical
# Experimental: According to the conventional solubility measurement, the solubility of the test samples were determined in four different systems: phosphate buffer solution (PBS, pH=7.4), methanol, 0.1% hydrochloric acid and water.
# [2] = target: T1, DPP-IV (Homo sapiens, UniProt P27487); test: DPP-IV inhibition, Promega DPPIV-Glo Protease Assay; assay type: biochemical
# T1 construct: purchased Calbiochem 317630
# T1 sequence (P27487 whole entry): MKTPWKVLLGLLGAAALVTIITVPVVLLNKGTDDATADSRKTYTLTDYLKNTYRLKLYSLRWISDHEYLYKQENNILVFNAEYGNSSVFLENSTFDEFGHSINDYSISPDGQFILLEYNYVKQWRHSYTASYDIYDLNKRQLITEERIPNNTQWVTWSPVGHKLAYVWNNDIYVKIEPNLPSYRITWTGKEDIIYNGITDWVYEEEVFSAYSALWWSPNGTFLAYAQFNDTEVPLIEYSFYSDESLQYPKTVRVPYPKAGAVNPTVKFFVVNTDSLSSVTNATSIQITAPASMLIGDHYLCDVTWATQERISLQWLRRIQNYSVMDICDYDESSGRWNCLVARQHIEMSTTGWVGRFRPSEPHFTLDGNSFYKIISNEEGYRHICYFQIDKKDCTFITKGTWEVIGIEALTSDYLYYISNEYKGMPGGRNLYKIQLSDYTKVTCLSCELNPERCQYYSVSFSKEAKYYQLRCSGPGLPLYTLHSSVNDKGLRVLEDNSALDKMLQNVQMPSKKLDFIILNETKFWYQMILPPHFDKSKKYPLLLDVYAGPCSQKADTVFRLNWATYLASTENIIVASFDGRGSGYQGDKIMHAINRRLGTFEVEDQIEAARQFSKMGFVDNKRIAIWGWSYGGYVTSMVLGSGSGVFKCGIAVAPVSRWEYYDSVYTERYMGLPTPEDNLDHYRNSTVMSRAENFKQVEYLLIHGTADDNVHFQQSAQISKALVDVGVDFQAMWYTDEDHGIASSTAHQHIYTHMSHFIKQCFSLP
# Experimental: (§1) The compounds of the present invention were tested to determine their DPP-IV, DPP-VIII, DPP-IX inhibition activity according to the following methods. The half inhibition concentrations IC50 (the concentration of the test compound showing 50% inhibition to the enzyme activity) of each compound were determined by reaction test and calculation of the mixture of fixed amounts of enzyme and substrate with several different concentrations of the test compounds.
# (§2) The compounds of the present invention were tested to determine the DPP-IV, DPP-VIII, DPP-IX inhibition activity in the following tests using Promega DPPIV-Glo™ Protease Assay (Cat No. G8350/G8351) Kit, wherein:
# a. DPP-IV enzyme bought from Calbiochem, Catalog no. 317630;
# (§3) The preparation procedure of the conventional reagent such as DPPIV-Glo buffer, luciferin reagents needed in the test and the detail operation of the test can refer to the specifications of the kits. The assay was carried out as following steps:
# (§4) The tested compounds were dissolved in DMSO to prepare a series of different concentrations of the test compound solution. DPPIV-Glo buffer and the freezing luciferin detection reagent were equilibrated to room temperature. The luciferin detection reagent was dissolved in moderate buffer in a brown flask to form a solution. Then DPP-IV-Glo. was dissolved in ultrapure water to give the appropriate concentration. The substrate solution and the luciferin detection reagent solution were mixed sufficiently in an appropriate ratio (the ratio of the invention is 1:49), and the mixture was layed at room temperature for 30-60 minutes. Tris buffer (2 mM, pH 8.0), the test compounds and DPP-IV (DPP-VIII or DPP-IX) were mixed and then transferred to a 96-well plate. Each test contains double-well of three-well control. The same volume of DMSO was added to the negative control and blank control. Then the 96-well plate was added with mixed solution of luciferin detection reagent and substrate to initiate the reaction. The 96-wells plate was incubated at room temperature on a plate shaker for 40 minutes after sealed. The strength of the fluorescent signal in each well was determined by microplate reader and the inhibition rate to the enzyme of the compound at this concentration was calculated by the formula as following: inhibitory rate: IR=[1−(S−B)/(N−B)]*100% • S: value of the sample • B: value of the blank control • N: value of the negative control
# (§5) IC50 of the test compounds can be calculated by the inhibition rate at different concentration.
# [3] = target: T2, DPP-VIII (Homo sapiens, UniProt Q6V1X1); test: DPP-VIII inhibition, Promega DPPIV-Glo Protease Assay; assay type: biochemical; conditions: read-out: IC50 DPP8
# T2 construct: purchased Bioscience 80080
# T2 sequence (Q6V1X1 whole entry): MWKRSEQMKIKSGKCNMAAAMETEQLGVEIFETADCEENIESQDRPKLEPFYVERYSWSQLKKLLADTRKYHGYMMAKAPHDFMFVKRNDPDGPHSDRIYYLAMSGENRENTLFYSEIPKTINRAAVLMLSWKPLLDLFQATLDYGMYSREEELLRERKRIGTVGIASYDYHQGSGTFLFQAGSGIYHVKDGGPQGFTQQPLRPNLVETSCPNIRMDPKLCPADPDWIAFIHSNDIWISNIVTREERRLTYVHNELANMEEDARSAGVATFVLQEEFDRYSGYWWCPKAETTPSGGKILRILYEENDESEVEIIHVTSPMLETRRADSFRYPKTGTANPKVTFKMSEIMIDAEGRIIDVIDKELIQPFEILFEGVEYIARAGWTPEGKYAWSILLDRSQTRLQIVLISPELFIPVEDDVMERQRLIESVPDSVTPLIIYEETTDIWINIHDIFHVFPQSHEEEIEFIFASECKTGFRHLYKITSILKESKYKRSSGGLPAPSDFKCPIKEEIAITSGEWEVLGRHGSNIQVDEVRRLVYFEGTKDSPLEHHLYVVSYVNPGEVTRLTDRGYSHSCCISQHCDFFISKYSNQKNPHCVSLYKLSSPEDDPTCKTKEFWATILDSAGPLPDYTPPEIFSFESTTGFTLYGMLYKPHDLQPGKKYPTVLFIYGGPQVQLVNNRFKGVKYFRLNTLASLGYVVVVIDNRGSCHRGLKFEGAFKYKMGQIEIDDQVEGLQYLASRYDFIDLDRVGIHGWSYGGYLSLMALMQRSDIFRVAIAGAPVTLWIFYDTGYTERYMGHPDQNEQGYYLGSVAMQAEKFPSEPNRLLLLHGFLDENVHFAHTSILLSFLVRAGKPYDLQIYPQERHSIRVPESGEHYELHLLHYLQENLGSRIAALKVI
# Experimental: as §1, §2
# b. DPP-VIII enzyme bought from Bioscience, Catalog no. 80080;
# as §3, §4, §5
# [4] = target: T3, DPP-IX (Homo sapiens, UniProt Q86TI2); test: DPP-IX inhibition, Promega DPPIV-Glo Protease Assay; assay type: biochemical; conditions: read-out: IC50 DPP9
# T3 construct: purchased Bioscience 80090
# T3 sequence (Q86TI2 whole entry): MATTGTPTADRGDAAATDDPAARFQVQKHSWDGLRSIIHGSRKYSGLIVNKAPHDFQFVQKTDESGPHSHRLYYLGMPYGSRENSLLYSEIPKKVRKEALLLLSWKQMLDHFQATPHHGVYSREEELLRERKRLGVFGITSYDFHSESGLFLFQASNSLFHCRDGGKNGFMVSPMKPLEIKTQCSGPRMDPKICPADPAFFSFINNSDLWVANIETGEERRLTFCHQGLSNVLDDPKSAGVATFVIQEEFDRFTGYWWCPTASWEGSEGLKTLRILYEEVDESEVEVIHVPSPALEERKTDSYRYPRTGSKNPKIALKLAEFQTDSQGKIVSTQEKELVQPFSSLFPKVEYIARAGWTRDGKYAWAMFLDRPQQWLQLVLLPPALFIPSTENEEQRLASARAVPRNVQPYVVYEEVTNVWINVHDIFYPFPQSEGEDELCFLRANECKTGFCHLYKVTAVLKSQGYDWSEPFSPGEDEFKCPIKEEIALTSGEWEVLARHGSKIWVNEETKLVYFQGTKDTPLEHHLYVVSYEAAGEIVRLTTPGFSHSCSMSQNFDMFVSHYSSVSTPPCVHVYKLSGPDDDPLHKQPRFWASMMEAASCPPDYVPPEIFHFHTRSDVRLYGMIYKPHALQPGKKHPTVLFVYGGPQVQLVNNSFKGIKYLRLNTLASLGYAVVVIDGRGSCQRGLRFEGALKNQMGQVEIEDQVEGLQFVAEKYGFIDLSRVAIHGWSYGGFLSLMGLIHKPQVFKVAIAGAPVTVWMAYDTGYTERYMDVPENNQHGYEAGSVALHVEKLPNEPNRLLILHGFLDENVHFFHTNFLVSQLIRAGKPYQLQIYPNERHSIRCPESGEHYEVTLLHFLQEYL
# Experimental: as §1, §2
# c. DPP-IX enzyme bought from Bioscience, Catalog no. 80090.
# as §3, §4, §5
# [5] = Pharmacokinetics assay in rats (LC/MS/MS plasma concentration); assay type: in vivo, SD rats; conditions: for F: intragastric 3.0 mg/kg (as free base), absolute bioavailability from AUC0-t vs vein injection
# Source text: The compound of Example 3 was administrated intragastrically or tail vein injection to rats and the compounds of Example 1-4, Example 9 and Example 11-12 were administrated intragastrically to determine the drug concentration in plasma at different time points by LC/MS/MS measurement. The pharmacokinetics of the compounds of the present invention was studied and evaluated in rats. And the oral absolute bioavailability was investigated.
# Compounds of Example 1-4, Example 9 and Example 11-12.
# […] healthy adult SD rats, male and female in half, were purchased from SINO-BRITSH SIPPR/BK LAB.ANIMAL LTD., CO, License number: SCXK (Shanghai) 2008-0016.
# Vein injection group: the proper weighed test compound was dissolved in 0.5 mL of DMSO by ultrasound and then diluted with normal saline to 15 mL to form a 0.3 mg/mL solution.
# Intragastrically administered group: the proper weighed test compound was dissolved in 0.5% CMC-Na by ultrasound to form a 0.3 mg/mL of suspension.
# 32 healthy adult SD rats, male and female in half, were divided into 8 groups so that each group consisted 4 rats. After an overnight fast, the rats were tail vein injected of the compound of Example 3 and intragastrically administered the compound of Example 3 and the salt thereof, at a dose of 3.0 mg/kg (calculated as the free base form) and a volume of 10 mL/kg.
# Blood samples (0.2 mL) of the rats in vein injection group were taken from eye socket at pre administration and at 2, 15, 30 minutes and 1.0, 2.0, 4.0, 6.0, 8.0, 12.0, 24.0 hours post administration, which were stored in heparinized tubes and centrifuged for 10 minutes at 3,500 rpm. The plasma samples were stored at −20° C. until analysis. The rats were fed 2 hours after administration.
# Blood samples of the rats in intragastrically administered group were taken at pre administration and at 0.5, 1.0, 2.0, 3.0, 4.0, 6.0, 8.0, 12.0, 24.0 hours post administration. The samples were treated with the same method as mentioned above.
# 50 μL of internal standard solution and 150 μL of methanol were added to 50 μL of rat plasma obtained at various time points after administration. Then the mixture was mixed for 3 minutes using a vortexer and centrifuged for 10 minutes at 13,500 rpm. 10 μL of the supernatant was analyzed by LC/MS/MS.
# The compartmental model of pharmacokinetics was fitted for the test compounds and the major pharmacokinetic parameters were calculated by DAS 2.0 software in which Cmax and tmax were the actually measured values. The absolute bioavailability was calculated by AUC0-t taken from post administration and vein injection.
# [6] = tested on: normal ICR mice; test: Hypoglycemic effect, oral glucose tolerance in normal ICR mice; assay type: in vivo; conditions: 10 mg/kg by gavage, glucose 4 g/kg 15 minutes after administration
# Experimental: To observe the effects on oral glucose tolerance of the compounds of Example 1-4 and Example 8-12 in normal ICR mice (SINO-BRITSH SIPPR/BK LAB.ANIMAL LTD., CO), the hypoglycemic effects in vivo have been evaluated using blood-glucose meter to measure and analyze the sugar content of the samples at different time points during 2 hours. The samples were taken from the mouse's tail.
# The administration dose was 10 mg/kg, and the blank was administered with water. Both groups contained 5% DMSO.
# The mice were administered by gavage. 4 g/kg of 10% glucose solution was administered (0.8 mL to each mice) 15 minutes after administration.
# The mice were administered according to above dose (the blank group was administrated with 5% DMSO aqueous solution) and the blood sugar value was measured (−15 minutes).
# 15 minutes after administration, the mice were administered of 4 g/kg of 20% glucose solution and the values of blood sugar were tested by Roche ACCU-CHEK at 0, 15, 30, 45, 60, 120 minutes.
# [7] = both sexes, SD, rat, plasma, po, 3 mg/kg, intragastric 3.0 mg/kg
# [8] = both sexes, SD, rat, plasma, po, 3 mg/kg, intragastric 3.0 mg/kg, read-out: MRT
# [9] = both sexes, SD, rat, plasma, po, 3 mg/kg, intragastric 3.0 mg/kg, read-out: Tmax
# [10] = 0.1% hydrochloric acid, simulated gastric fluid, 0.1% hydrochloric acid, read-out: Solubility Value, 0.1% HCl
# [11] = methanol, organic solvent or mixture, methanol, read-out: Solubility Value, methanol
# [12] = phosphate buffer solution (PBS), pH 7.4, aqueous buffer, PBS pH 7.4, read-out: Solubility Value, PBS (pH 7.4)
# [13] = water, read-out: Solubility Value, water
"Solubility Value, 0.1% HCl ([1]; 0.1% hydrochloric acid) [mg/mL]","Solubility Value, PBS (pH 7.4) ([1]; PBS pH 7.4) [mg/mL]","Solubility Value, methanol ([1]; methanol) [mg/mL]","Solubility Value, water ([1]; water) [mg/mL]",IC50 [2] [µM],IC50 [3] [µM],IC50 [4] [µM],"half-life [5, 7] [h]","MRT [5, 8] [h]","Tmax [5, 9] [h]",AUC(0-t) ([5]; intragastric 3.0 mg/kg) [ng·h/mL],CL/F ([5]; intragastric 3.0 mg/kg) [mL/min/kg],Cmax ([5]; intragastric 3.0 mg/kg) [ng/mL],F [5] [%],"solubility [1, 10] [mg/mL]","solubility [1, 11] [mg/mL]","solubility [1, 12] [mg/mL]","solubility [1, 13] [mg/mL]",SMILES,Hypoglycemic rate of blood sugar of 30 minutes after administration ([6]; 10 mg/kg) [%],also measured
12.6,0.3,35.2,1.0,0.012,114,128,3.18 ± 0.71,4.34 ± 0.66,1.25 ± 0.5,93.2 ± 36.4,548 ± 167,25.1 ± 13.9,4.06,,,,,"N[C@@H](CC(=O)N1CCn2c(C(F)(F)F)nc(C(=O)O)c2C1)Cc1cc(F)c(F)cc1F [Example 9, 2-Hydroxyethylammonium (R)-7-[3-amino-4-(2,4,5-trifluorophenyl)butanoyl]-3-trifluoromethyl-5,6,7,8-tetrahydro-imidazo[1,5-a]pyrazine-1-carboxylate]",27.56,
15.2,1.2,40.3,1.5,0.023,210,166,,,,,,,,,,,,"N[C@@H](CC(=O)N1CCn2c(C(F)(F)F)nc(C(=O)O)c2C1)Cc1cc(F)c(F)cc1F [Example 10, 2-Hydroxyethyl(trimethyl)ammonium (R)-7-[3-Amino-4-(2,4,5-trifluorophenyl)-butanoyl]-3-trifluoromethyl-5,6,7,8-tetrahydro-imidazo[1,5-a]pyrazine-1-carboxylate]",20.92,
,,,,0.009,280,180,2.21 ± 0.69,4.5 ± 1.32,1.63 ± 1.11,,,,3.03,32.6,5.4,19.5,22.2,"N[C@@H](CC(=O)N1CCn2c(C(F)(F)F)nc(C(=O)O)c2C1)Cc1cc(F)c(F)cc1F.O=C(O)C[C@H](O)C(=O)O [Example 11, (R)-7-[3-Amino-4-(2,4,5-trifluorophenyl)butanoyl]-3-trifluoromethyl-5,6,7,8-tetrahydro-imidazo[1,5-a]pyrazine-1-carboxylic acid (2S)-2-hydroxybutanedioic acid]",,"AUC(0-t) ([5]; both sexes, SD, rat, plasma, po, 3 mg/kg, intragastric 3.0 mg/kg, read-out: AUC0-t): 69.5 ± 25.2 ng·h/mL; CL/F ([5]; both sexes, SD, rat, plasma, po, 3 mg/kg, intragastric 3.0 mg/kg, read-out: CL/F (converted)): 777 mL/min/kg; Cmax ([5]; both sexes, SD, rat, plasma, po, 3 mg/kg, intragastric 3.0 mg/kg, read-out: Cmax): 13.5 ± 3.9 ng/mL; Vd/F ([5]; both sexes, SD, rat, plasma, po, 3 mg/kg, intragastric 3.0 mg/kg, read-out: Vz/F): 140 ± 39 L/kg; Hypoglycemic rate of blood sugar of 30 minutes after administration [6]: 20.18%"
20.5,7.0,32.7,9.2,0.013,236,125,,,,58.3 ± 17.3,862 ± 267,13.4 ± 5.6,2.54,,,,,"N[C@@H](CC(=O)N1CCn2c(C(F)(F)F)nc(C(=O)O)c2C1)Cc1cc(F)c(F)cc1F [Example 3, (R)-7-[3-Amino-4-(2,4,5-trifluorophenyl)butanoyl]-3-trifluoromethyl-5,6,7,8-tetrahydro-imidazo[1,5-a]pyrazine-1-carboxylic acid]",25.60,"half-life ([5]; both sexes, SD, rat, plasma, iv, 3 mg/kg, tail vein injection 3.0 mg/kg): 2.35 ± 1.9 h; AUC(0-t) ([5]; both sexes, SD, rat, plasma, iv, 3 mg/kg, tail vein injection 3.0 mg/kg, read-out: AUC0-t): 2300 ± 353 ng·h/mL; MRT ([5]; both sexes, SD, rat, plasma, iv, 3 mg/kg, tail vein injection 3.0 mg/kg, read-out: MRT): 0.22 ± 0.06 h; MRT ([5]; intragastric 3.0 mg/kg): 4.45 ± 1.01 h; Tmax ([5]; intragastric 3.0 mg/kg): 1.00 ± 0.00 h; t1/2 ([5]; intragastric 3.0 mg/kg): 2.73 ± 0.73 h; CL/F ([5]; tail vein injection 3.0 mg/kg): 22.2 ± 3.33 mL/min/kg"
,,,,0.025,80.5,50.6,,,,,,,,101,50.3,60.5,40.2,"N[C@@H](CC(=O)N1CCn2c(C(F)(F)F)nc(C(=O)[O-])c2C1)Cc1cc(F)c(F)cc1F.[Li+] [Example 5, Lithium (R)-7-[3-amino-4-(2,4,5-trifluorophenyl)butanoyl]-3-trifluoromethyl-5,6,7,8-tetrahydro-imidazo[1,5-a]pyrazine-1-carboxylate]",,
8.3,0.2,20.1,0.5,,152,136,,,,,,,,,,,,"N[C@@H](CC(=O)N1CCn2c(C(F)(F)F)nc(C(=O)O)c2C1)Cc1cc(F)c(F)cc1F [Example 8, Triethylammonium (R)-7-[3-amino-4-(2,4,5-trifluorophenyl)butanoyl]-3-(trifluoromethyl)-5,6,7,8-tetrahydro-imidazo[1,5-a]pyrazine-1-carboxylate]",19.82,
